System: human myeloma cell line MM.1S
Experiment: SILAC acetylated-lysine peptide profiling, HDAC inhibitor vs DMSO (light/heavy ratio)
Assay type: cell-based
Text: An embodiment of the invention comprises utilizing the SILAC method in order to quantitate changes in protein expression between two or more populations of cells. The SILAC method is a technique based on mass spectrometry that detects differences in protein abundance among samples using non-radioactive isotopic labeling. The SILAC method is known in the art, and described in detail in Ong et al., “Stable Isotope Labeling by Amino Acids in Cell Culture, SILAC, as a Simple and Accurate Approach to Expression Proteomics”, Molecular & Cellular Proteomics, vol. 1, pp. 376-386 (2002), which is incorporated herein by reference in its entirety.
Briefly, the SILAC method involves growing two populations of cells in cell culture. The first population of cells is grown in growth media containing normal amino acids (“normal media”). The second population of cells is grown in media lacking a standard essential amino acid (such as lysine), but is then supplemented with a non-radioactive, isotopically labeled form of that essential amino acid (such as lysine labeled with ^13C atoms, rather than normal ^12C atoms), which is called “heavy media”. When the two populations of cells are each growing in the medium, they incorporate the amino acids into all of their proteins. The growth of cells maintained in the heavy media is no different from that in normal media. All peptides containing the heavy amino acids are heavier than their normal counterparts. The cells from each of the two populations of cells are lysed. The lysates from each of the two cell populations are then combined. The combined cell lysates are then analyzed by mass spectrometry. Pairs of chemically identical peptides of different stable isotope composition can be differentiated in a mass spectrometer due to their difference in mass. The ratio of peak intensities in the mass spectrum for such peptide pairs reflects the abundance ratio for the two proteins.
This example describes SILAC studies that were performed to compare the effects of three different HDAC inhibitors (Compound A, Compound B, and tubastatin A) to a control on a human multiple myeloma cell line. The HDAC inhibitors were also compared amongst themselves to determine differences in their effects.
A human myeloma cell line MM.1S was grown using either ^12C (light) or ^13C (heavy) lysine containing culture medium. The “heavy” cells were treated with DMSO as the control, and the “light” cells were treated with a single HDAC inhibitor at 37° C. for 6 hours. The heavy and light cells were lysed, and the lysates were mixed in 1:1 ratio and digested with the protease trypsin. The acetylated lysine containing peptides (due to the action of the HDAC inhibitor) in the digested peptide pool were captured by a non-specific anti-acetylated lysine antibody cocktail (the antibodies identify both light and heavy acetylated peptides), and subjected to mass spectrometry analysis in order to identify thousands of individual peptides.
Thousands of peptides were identified in pairs (^12C and ^13C) due to their known mass differences. The amino acid sequence and quantitative ratio (Light/Heavy) of a given peptide in two differentially treated cell lysates were then determined and annotated with their possible protein (gene) sources.
As stated above, three HDAC inhibitors (Compound A, Compound B, and Tubastatin A) were used. Thus, the SILAC method was performed three times, with a different HDAC inhibitor compared to a control each time. Accordingly, there are three pairs of quantitative data in the table below, i.e., Compound A:DMSO, Compound B:DMSO, and Tubastatin A:DMSO. A cut-off of 1.30 fold of change (increase or decrease) was then used to determine “changed” or “+” in the table, and any peptides with a fold of change less than 1.3 fold were determined to be “unchanged” or “0” in the table. Those peptides that were not identified were marked as “NA” in the table. […]

SMILES: O=C(CCCCCCNC(=O)c1cnc(N(c2ccccc2)c2ccccc2)nc1)NO [Compound A, 2-(diphenylamino)-N-(7-(hydroxyamino)-7-oxoheptyl)pyrimidine-5-carboxamide]
- L/H ratio of acetylated peptide DWVLNEFK(ac)HGK (SEQ ID NO: 33) (DDX5 [388], log 2 scale, drug vs DMSO): 0.00
- L/H ratio of acetylated peptide FEK(ac)[…] (SEQ ID NO: 32) (DDX17 [132], log 2 scale, drug vs DMSO): 0.00
- L/H ratio of acetylated peptide ELNK(ac)ILEGR (SEQ ID NO: 2) (DLAT [466], log 2 scale, drug vs DMSO): 0.00
- light to heavy ratio (L/H ratio) of acetylated peptide SQFLK(ac)YIEK (SEQ ID NO: 524) (DNA replication licensing factor MCM2 [534], gene MCM2, inhibitor:DMSO): −0.46 log 2
- light to heavy ratio (L/H ratio) of acetylated peptide TFEK(ac)SMMNLQTK (SEQ ID NO: 354) (DNA topoisomerase 1 [642], TOP1, drug:DMSO): 0.00 log 2
- L/H ratio of acetylated peptide VVK(ac)HPIFER (SEQ ID NO: 35) (DNAJB11 [247], log 2 scale, drug vs DMSO): 0.00
- L/H ratio of acetylated peptide (DVTLQK(ac)QCVPFR (SEQ ID NO: 486), 60S ribosomal protein L17 [55], RPL17): 0.71 log 2
- light to heavy ratio (L/H ratio) of acetylated peptide LNLDK(ac)MMEQK (SEQ ID NO: 603) (Dihydrolipoyl dehydrogenase mitochondrial [122], gene DLD, inhibitor:DMSO): 0.46 log 2
- light to heavy ratio (L/H ratio) of acetylated peptide DTYIENEK(ac)LISGK (SEQ ID NO: 352) (Dolichyl-diphosphooligosaccharide--protein glycosyltransferase subunit 1 precursor [626], RPN1, drug:DMSO): 0.00 log 2
- light to heavy ratio (L/H ratio) of acetylated peptide YNIEK(ac)DIAAHIK (SEQ ID NO: 553) (Dynein light chain 1 cytoplasmic [36], gene DYNLL1, inhibitor:DMSO): 0.40 log 2
- light to heavy ratio (L/H ratio) of acetylated peptide YNIEK(ac)DIAAYIK (SEQ ID NO: 331) (Dynein light chain 2 cytoplasmic [36], DYNLL2, drug:DMSO): 0.00 log 2
- L/H ratio of acetylated peptide (EHLLK(ac)YEYQPFAGK (SEQ ID NO: 482), Isoform 1 of WD repeat-containing protein 1 [95], WDR1): 0.47 log 2
- L/H ratio of acetylated peptide TSK(ac)NK(ac)SSLSR (SEQ ID NO: 14) (EP300 [1558:1560], log 2 scale, drug vs DMSO): 1.00
- light to heavy ratio (L/H ratio) of acetylated peptide YLAEK(ac)YEWDVAEAR (SEQ ID NO: 332) (Elongation factor 2 [638], EEF2, drug:DMSO): 0.00 log 2
- light to heavy ratio (L/H ratio) of acetylated peptide TFK(ac)GVVDVVMK (SEQ ID NO: 550) (Elongation factor G 2 mitochondrial precursor [265], gene GFM2, inhibitor:DMSO): 0.39 log 2
- light to heavy ratio (L/H ratio) of acetylated peptide KSDYIK(ac)LYVR (SEQ ID NO: 315) (Endoplasmin [410], HSP90B1, drug:DMSO): 1.00 log 2
- light to heavy ratio (L/H ratio) of acetylated peptide EK(ac)[…] (SEQ ID NO: 314) (Endoplasmin[ 142], HSP90B1, drug:DMSO): 1.00 log 2
- light to heavy ratio (L/H ratio) of acetylated peptide EVEEDEYK(ac)AFYK (SEQ ID NO: 261) (Endoplasmin[ 356], HSP90B1, drug:DMSO): 0.41 log 2
- light to heavy ratio (L/H ratio) of acetylated peptide K(ac)EELTLEGIR (SEQ ID NO: 510) (Eukaryotic initiation factor 4A-I [238], gene EIF4A1, inhibitor:DMSO): −0.60 log 2
- light to heavy ratio (L/H ratio) of acetylated peptide LMCK(ac)PIFSK (SEQ ID NO: 335) (Eukaryotic translation initiation factor 2 subunit 3 [312], EIF2S3, drug:DMSO): 0.00 log 2
- light to heavy ratio (L/H ratio) of acetylated peptide SHLAK(ac)EGLYQYK (SEQ ID NO: 533) (Eukaryotic translation initiation factor 3 subunit A [68], gene EIF3A, inhibitor:DMSO): −0.41 log 2
- L/H ratio of acetylated peptide (FGIAAK(ac)[…] (SEQ ID NO: 479), Isoform 2 of Voltage-dependent anion-selective channel protein 2 [224], VDAC2): −0.40 log 2
- light to heavy ratio (L/H ratio) of acetylated peptide, log 2 scale (FPHSAHQK(ac)YVR (SEQ ID NO: 253), Ribosomal protein L14 variant [71], RPL14): −0.39
- L/H ratio of acetylated peptide (FVATGHGK(ac)YEK (SEQ ID NO: 487), Lymphocyte-specific protein 1 [327], LOC100133284, LSP1): 0.75 log 2
- light to heavy ratio (L/H ratio) of acetylated peptide AVDLIQK(ac)HK (SEQ ID NO: 546) (Flap endonuclease 1 [252], gene FEN1, inhibitor:DMSO): 0.39 log 2
- light to heavy ratio (L/H ratio), log 2 scale, acetylated peptide GGVVGIK(ac)VDK (SEQ ID NO: 774) (Fructose-bisphosphate aldolase A [108], gene ALDOA, drug:DMSO): 1.00
- L/H ratio of acetylated peptide TCEESSFCK(ac)R (SEQ ID NO: 36) (GANAB [48], log 2 scale, drug vs DMSO): 0.00
- L/H ratio of acetylated peptide ASGLAAGK(ac)GVIVAK (SEQ ID NO: 37) (GART [156], log 2 scale, drug vs DMSO): 0.00
- L/H ratio of acetylated peptide LVK(ac)VWNLANCK (SEQ ID NO: 39) (GNB2L1 [175], log 2 scale, drug vs DMSO): 0.00
- L/H ratio of acetylated peptide IIVDELK(ac)QEVISTSSK (SEQ ID NO: 38) (GNB2L1 [271], log 2 scale, drug vs DMSO): 0.00
- L/H ratio of acetylated peptide (GSK(ac)K(ac)AVTK (SEQ ID NO: 490), Histone H2B type 2-E [16:17], HIST2H2BE): 1.00 log 2
- L/H ratio of acetylated peptide (ac)AHYNFK(ac)K (SEQ ID NO: 40) (GTPBP4 [7], log 2 scale, drug vs DMSO): 0.00
- L/H ratio of acetylated peptide (GVHPK(ac)FPEGGK (SEQ ID NO: 483), NADH-cytochrome b5 reductase 1 [124], CYB5R1): 0.48 log 2
- light to heavy ratio (L/H ratio) of acetylated peptide (ac)[…](ac)PGECLR (SEQ ID NO: 575) (Galectin-1 [13], gene LGALS1, inhibitor:DMSO): 0.42 log 2
- light to heavy ratio (L/H ratio) of acetylated peptide ISGASEK(ac)[…] (SEQ ID NO: 543) (Glutamate dehydrogenase 1 mitochondrial [503], gene GLUD1, inhibitor:DMSO): 0.39 log 2
- light to heavy ratio (L/H ratio) of acetylated peptide […](ac)YDNSLK (SEQ ID NO: 620) (Glyceraldehyde-3-phosphate dehydrogenase [139], gene GAPDH, inhibitor:DMSO): 0.48 log 2
